Results published in patent publication EP2161029A1, “Composition comprising peptides” (Unilever N.V., priority 2008, dated 2010).
Peptide text beside a SMILES is read from it.

Protocol: The pH of simulated gastric fluid (SGF, 0.15 M NaCl, pH 2.5) was increased to 7.5 with […] (40 mM), and the following compounds were added to adjust the pH to 6.8 and simulate a duodenal-jejunal environment and create simulated small intestinal fluid (SIF): (i) a bile salt mixture containing equimolar quantities (0.125 M) of sodium taurocholate and glycodeoxycholic acid in NaHC03 (1 M), (ii) solutions of pancreatin from porcine pancreas (9 mg/mL) in water was prepared and added at approximately physiological ratios. The pH was adjusted to 6.8 with HCl (0.1 M). Peptides were dissolved in SIF at a final peptide concentration of 50 µM. Aliquots (1 mL) were prepared for sampling at different time points. Simulated intestinal digestion was carried out at 37°C, and aliquots (1 mL) were taken at 0, 5, 15, and 60 min after the start of the experiment. After peptide hydrolysis, digestive enzymes were inactivated at 95°C for 15 min and samples were cooled immediately on ice water and stored at -20 °C until further analysis.
Quantification of dipeptides derived from digestion were performed using a liquid chromatography multiple reaction ion monitoring-mass spectrometry (LC-MRM-MS) method as described van Platerink CJ, Janssen HG, Horsten R, Haverkamp J. Quantification of ACE inhibiting peptides in human plasma using high performance liquid chromatography-mass spectrometry. J Chromatogr B Analyt Technol Biomed Life Sci 2006,830:151-157. Peptide separation was performed on an Atlantis Hilic Silica column (2.1 x 150 mm, 3 µm particle size) and a Micromass Quattro-II (Milford MA, USA) with HP1100LC system (Hewlett-Packard, USA). The gradient started at 100% 0.1% trifluoro acetic acid in Milli-Q water and ended at 70% 0.1 % trifluoro acetic acid in acetonitrile. To support the ionization, a 70/30 mixture of propionic acid and propanol-2 was added postcolumn at a flow rate of 50 mL·min-1. All analyses were conducted on an Alliance 2795 HPLC (Waters, Milford MA, USA) combined with a Quattro Premier triple quadrupole mass spectrometer from the same supplier.
An intestinal stability data set consisting of 228 dipeptides was generated based on the results from the simulated digestion experiments. The area under the time - peptide concentration curve was calculated and used for further analysis and modelling. An ACE inhibitory dipeptide database consisting of 228 dipeptides was constructed.
For each peptide the relative stability (in % of initial dipeptide concentration) was plotted against time and the area under the curve (AUC) was calculated.

Row | SMILES | Stability observed AUC | AUC [units] | intestinal stability (in words)
1 | NC(N)=NCCC[C@H](N)C(=O)N[C@@H](Cc1c[nH]c2ccccc12)C(=O)O [Arg-Trp] (H-Arg-Trp-OH) | 265±10 | – | –
2 | NC(=O)C[C@H](N)C(=O)N[C@@H](Cc1ccc(O)cc1)C(=O)O [Asn-Tyr] (H-Asn-Tyr-OH) | 240±12 | – | –
3 | N[C@@H](CC(=O)O)C(=O)N1CCC[C@H]1C(=O)O [DP, Asp-Pro] (H-Asp-Pro-OH) | – | > 5900 | –
4 | N[C@@H](CC(=O)O)C(=O)N[C@@H](Cc1c[nH]c2ccccc12)C(=O)O [DW] (H-Asp-Trp-OH) | – | – | high intestinal stability
5 | C[C@H](NC(=O)CN)C(=O)O [GA, Gly-Ala] (H-Gly-Ala-OH) | – | > 5900 | –
6 | NCC(=O)N[C@@H](CS)C(=O)O [GC] (H-Gly-Cys-OH) | – | – | high intestinal stability
7 | NCC(=O)N[C@@H](CC(N)=O)C(=O)O [GN] (H-Gly-Asn-OH) | – | – | high intestinal stability
8 | CC(C)[C@H](NC(=O)CN)C(=O)O [GV, Gly-Val] (H-Gly-Val-OH) | – | > 5900 | –
9 | N=C(N)NCCC[C@H](NC(=O)CN)C(=O)O [Gly-Arg] (H-Gly-Arg-OH) | 4622±1283 | – | –
10 | O=C(O)[C@H](Cc1c[nH]c2ccccc12)NC(=O)[C@@H]1CCCN1 [PW] (H-Pro-Trp-OH) | – | – | high intestinal stability
11 | N[C@@H](CO)C(=O)N1CCC[C@H]1C(=O)O [Ser-Pro] (H-Ser-Pro-OH) | 4887±639 | – | most intestinal stable dipeptide
12 | NC(=O)C[C@H](NC(=O)[C@@H](N)Cc1c[nH]c2ccccc12)C(=O)O [Trp-Asn] (H-Trp-Asn-OH) | 4812±901 | – | –
13 | N[C@@H](Cc1c[nH]c2ccccc12)C(=O)NCC(=O)O [Trp-Gly] (H-Trp-Gly-OH) | 4280±721 | – | –
14 | N[C@@H](Cc1c[nH]c2ccccc12)C(=O)N[C@@H](Cc1c[nH]cn1)C(=O)O [Trp-His] (H-Trp-His-OH) | 2934±800 | – | –
15 | N[C@@H](Cc1c[nH]c2ccccc12)C(=O)N1CCC[C@H]1C(=O)O [Trp-Pro] (H-Trp-Pro-OH) | 4606±129 | – | –
16 | C[C@H](NC(=O)[C@@H](N)Cc1ccc(O)cc1)C(=O)O [Tyr-Ala] | 4593±1930 | – | –
17 | N[C@@H](Cc1ccc(O)cc1)C(=O)NCC(=O)O [Tyr-Gly] | 3384±475 | – | high stability
18 | N[C@@H](Cc1ccc(O)cc1)C(=O)N1CCC[C@H]1C(=O)O [Tyr-Pro] (H-Tyr-Pro-OH) | 4187±399 | – | –
19 | CC(C)[C@H](N)C(=O)N[C@@H](Cc1ccc(O)cc1)C(=O)O [Val-Tyr] (H-Val-Tyr-OH) | 373±27 | – | –
